Assay results from publication PMC2956624, “Context-Dependent Cell Cycle Checkpoint Abrogation by a Novel Kinase Inhibitor” (PLoS ONE, 2010).

Tested on: HT29 cells
Experiment: Flow cytometry cell cycle profiles, HT29
Format: cell-based, human
Conditions: for abrogation of DNA damage induced cell cycle arrest: DNA damaging agent 16 hours, then PF-477736 (400 nM) or VX680 (400 nM) 48 hours
Procedure: Fixed cells were analyzed by flow cytometry.
All cells were harvested, fixed in 70% ethanol and stained with propidium iodide/RNase A. Cell cycle profiles were examined by flow cytometry using a FACSArray cytometer (BD) and FACSDiva software (BD).

| SMILES | cells remaining arrested in G2 or M (100 nM paclitaxel 18 hours, then 24 hours with 200 nM VER-150548 or 400 nM VX680 (DMSO 65.4%)) [%] | abrogation of DNA damage induced cell cycle arrest | cell cycle effect as single agent (unperturbed cells, 8 to 48 hours) |
| --- | --- | --- | --- |
| Cc1cc(Nc2cc(N3CCN(C)CC3)nc(Sc3ccc(NC(=O)C4CC4)cc3)n2)[nH]n1 [VX680] | 28.5 | unable to override the DNA damage induced arrest | caused G2/M arrest at early time points and subsequent reduplication following extended incubation |
| Cn1cc(-c2[nH]c3cc(NC(=O)[C@H](N)C4CCCCC4)cc4c3c2C=NNC4=O)cn1 [PF-477736] |  | abrogated DNA damage induced cell cycle arrest |  |
